In patent publication US10513529B2, “1,2,4-triazolo-[3,4-b]-1,3,4-thiadiazole derivatives” (GALENICA S.A., priority 2016, dated 2019):
Values joined by “and” are separate entries in the source; they are usually repeats but may differ in a detail not shown here. Equal entries are not always repeated.

Key:
[1] = tested on: UWB1.289 + BRCA1 human ovarian cancer cell line; experiment: MTT cytostatic-cytotoxic activity, UWB1.289+BRCA1; format: cell-based; conditions: for IC50: kills 50% of the cells
Description: Human ovarian adenocarcinoma cells, derived from UBWB1,289, in which the presence of the BRCA1 gene has been restored. […] They are not susceptible to ionizing radiation and radioimmune chemical agents (e.g., alkylating agents). Also, UWB1.289 cells have mutated the p53 tumor suppressor gene, and are positive for the expression of cytokeratin 7 (CK-7), calretinin and Wilms' tumor protein (WT).
(§1) All cancer cell lines are stored in a liquid nitrogen tank in 2.5 ml cryovials (Corning-Costar, Cambridge, Mass.). DMSO (dimethylsulfoxide) act as a cryoprotectant and is added to prevent the formation of ice crystals which may lyse the cells. The Cells were grown as monolayer cultures in T-75 flasks (Corning-Costar, Cambridge, Mass.) and maintained at 37° C. in 5% CO2 incubator & 100% relative humidity. The cultures medium used are McCoy's 5a Medium, supplemented with 10% fetal bovine serum (FBS, Gibco) and 1% antibiotics (100 IU/ml penicillin/100 µg/ml streptomycin), sterilized by filtration (Corning-Costar filter, diameter 0.2 μm, RPMI-1640 and 50% RPMI-1640 (Catalog No 30-2001) plus 50% Mammary Epithelial Growth Medium (MEGM), supplemented with 10% fetal bovine serum (FBS, Gibco) and 1% antibiotics (100 IU/ml penicillin/100 μg/ml streptomycin). The passage is performed every 3-4 to days as follows: Cells are washed with sterile PBS (Phosphate buffered saline): 8 g/l NaCl, 0,2 g/l KCl, 1,15 g/l Na2HPO4καl 0,2 g/l KH2PO4. pH:7,4), add 2-3 ml 0.05% trypsin (Gibco 1:250) and 0.02% EDTA to cover the monolayer and incubate the flask at 3TC for 5-10 minutes. Trypsin-EDTA, is used mainly to detach the cells from the flask and prepare a single cell suspension. Finally, the number of cells can be determined by direct counting using a Neubauer chamber and cell viability is determined by staining the cells with trypan blue.
(§2) In the experimental study the in vitro effect of the compound type (I) was evaluated against ovarian cancer cell lines UWB1.289, UWB1.289+BRCA1 Kai SKOV-3.The cells were plated in 96-well plate (MTP) at a density of 1×10^4cells/m1 per well and maintained for 72 h at 3TC in a 5% CO2 incubator and grown as monolayers. The selection of the initial number of cells was made according to the rate of proliferation of the cell line, in order the cells throughout the experiment are in an exponential (log) growth phase. After 24 hours, cells were treated with 1-100 μmol/l of the tested compounds for 48 h. Experiments were carried out using triplicate wells. The viability of cultured cells was estimated by an (3-(4,5-imethylthiazol-2-yl)-2,5-diphenyltetrazolium bromide (MTT) metabolic assay as described previously (Finlay G J, Wilson W R and Baguley B C: Comparison of in vitro activity of cytotoxic drugs towards human carcinoma and leukaemia cell lines. Eur J Cancer Clin Oncol 22: 655-662, 1986; Alley M C, Scudiero D A, Monks A, Hursey M L, Czerwinski M J, Fine D L, et al. Feasibility of drug screening with panels of human tumor cell lines using a microculture tetrazolium assay. Cancer Res 1988; 48:589-601). MTT (Sigma, St Louis, Mo., USA) was dissolved in PBS in a concentration of 5 mg/ml, filter sterilized, and stored at 4° C. MTT (50 μl of stock solution) was added to each culture and incubated for 3 h at 3TC to allow metabolization. Formazan crystals were solubilized by DMSO (100 μl). Absorbance of the converted dye was measured at a wavelength of 540nm on ELISA reader (BioTek, Winooski, Vt., USA).
(§3) GI50: The mean concentration that causes 50% inhibition of cell growth (Growth Inhibition 50%). The calculation of the value is based on the formula: (Tt72x)−(Ct24)/(Ct72)-(Ct24)×100=50
(§4) TGI: The mean concentration that causes 100% inhibition of cell growth (Total Growth Inhibition). The value is calculated according to the formula: (Tt72x)−(Ct24)/(Ct72)−(Ct24)×100=0
(§5) IC50: The mean concentration that kills 50% of the cells (Inhibition Concentration 50%). The value is calculated according to the formula: (Tt72x)−(Ct24)/(Ct24)×100=[…]

[2] = tested on: OVCAR-3 human ovarian cancer cell line; experiment: MTT cytostatic-cytotoxic activity, OVCAR-3; format: cell-based; conditions: OVCAR-3, 48 h treatment; for IC50: kills 50% of the cells
Description: (§6) SKOV-3 (SKOV-3) (ATCC HTB 77) and OVCAR-3 (ATCC® HTB-161™)
(§7) Human ovarian adenocarcinoma cells, which are grown easily in monolayer culture with epithelial-like morphology. SKOV-3 are resistant to tumor necrosis factor (TNF) and to other cytotoxic drugs such as cisplatin, and adriamycin, while OVCAR-3 are resistant to adriamycin, cisplatin and melphalan. These cell lines express androgens, estrogens and progesterone receptors. When SKOV-3 or OVCAR-3 cells are subcutaneously implanted in nude mice, SCID mice, a moderately differentiated tumor develops, and the resulting model resembles primary ovarian adenocarcinoma in humans.
as §1, §2, §3
(§8) TGI: The mean concentration that causes 100% inhibition of cell growth (Total Growth Inhibition). […]

[3] = tested on: SKOV-3 human ovarian cancer cell line; experiment: MTT cytostatic-cytotoxic activity, SKOV-3; format: cell-based; conditions: for IC50: kills 50% of the cells
Description: as §6, §7, §1, §2, §3, §8

[4] = tested on: UWB1.289 human ovarian cancer cell line (mutant BRCA1); experiment: MTT cytostatic-cytotoxic activity, UWB1.289; format: cell-based; conditions: for IC50: kills 50% of the cells
Description: Also, UWB1.289 cells have mutated the p53 tumor suppressor gene and positive Wilms' tumor protein (WT) expression, have no functional BRCA1 gene and are positive for the expression of cytokeratin 7 (CK-7), calretinin and Wilms' tumor protein (WT). Finally they are sensitive to ionizing radiation.
as §1, §2, §3, §4, §5

[5] = tested on: MCF-7 human breast cancer cell line; experiment: MTT cytostatic-cytotoxic activity, MCF-7; format: cell-based; conditions: for IC50: kills 50% of the cells
[6] = tested on: T-47D human breast cancer cell line; experiment: MTT cytostatic-cytotoxic activity, T-47D; format: cell-based; conditions: 48 h treatment; for IC50: kills 50% of the cells
[7] = tested on: PC-3 human hormone-resistant prostate cancer cell line; experiment: MTT cytostatic-cytotoxic activity, PC-3; format: cell-based; conditions: PC-3, 48 h treatment; for IC50: kills 50% of the cells
[8] = tested on: MOLT-4 human acute T-leukemia cell line; experiment: MTT cytostatic-cytotoxic activity, MOLT-4; format: cell-based; conditions: MOLT-4, 48 h treatment; for IC50: kills 50% of the cells
[9] = tested on: A-549 human lung carcinoma cell line; experiment: MTT cytostatic-cytotoxic activity, A-549; format: cell-based; conditions: for IC50: kills 50% of the cells
C57BI/6 mice = experiment: in vivo; conditions: i.p., acute toxicity
Description: The acute toxicity of the compounds was assessed from lethality by testing different concentrations, starting at 100mg/kg. […] For intraperitoneal (i.p.) treatment, stock solutions of the tested compounds were prepared immediately before use. They were suspended in corn oil in the desired concentration following initial dissolution in 10% dimethylsulfoxide (DMSO). C57BI/6 male and female were used for toxicity studies. Mice were kept under conditions of constant temperature and humidity in sterile cages with water and food.

[10] = Homo sapiens, UWB1289, UWB1.289+BRCA1, 48 h treatment
[11] = Homo sapiens, SK-OV-3, SKOV-3, 48 h treatment
[12] = Homo sapiens, A549, A-549, 48 h treatment

SMILES	TGI ([1]; UWB1.289+BRCA1, 48 h treatment) [µM]	TGI [2] [µM]	TGI ([3]; SKOV-3, 48 h treatment) [µM]	TGI ([4]; UWB1.289, 48 h treatment) [µM]	TGI ([5]; MCF-7, 48 h treatment)	GI50 [6] [µM]	TGI [6]	TGI [7] [µM]	TGI [8] [µM]	TGI ([9]; A-549, 48 h treatment) [µM]	GI50 ([1]; UWB1.289+BRCA1, 48 h treatment) [µM]	IC50 ([1]; UWB1.289+BRCA1, 48 h treatment) [µM]	GI50 [2] [µM]	IC50 [2] [µM]	GI50 ([3]; SKOV-3, 48 h treatment) [µM]	IC50 ([3]; SKOV-3, 48 h treatment) [µM]	GI50 ([4]; UWB1.289, 48 h treatment) [µM]	IC50 ([4]; UWB1.289, 48 h treatment) [µM]	GI50 ([5]; MCF-7, 48 h treatment) [µM]	IC50 ([5]; MCF-7, 48 h treatment) [µM]	further results
COc1cc(Cc2nnc3sc(-c4cccc(Cl)c4)nn23)c(S(=O)(=O)N(C)C)cc1OC [TS22, 3-[2-(N,N-dimethylsulfamoyl)-4,5-dimethoxybenzyl]-6-(3-chlorophenyl)-1,2,4-triazolo[3,4-b]-1,3,4-thiazole]	>100	>100	100	>100	90 µM and >100 µM	60	97 µM and 100 µM	>100	>100	95											GI50 [1, 10]: 16 µM; IC50 [1, 10]: > 100 µM; GI50 ([2]; Homo sapiens): 90 µM; IC50 ([2]; Homo sapiens): > 100 µM; GI50 [3, 11]: 60 µM; IC50 [3, 11]: > 100 µM; IC50 ([4]; Homo sapiens, UWB1289, UWB1.289, 48 h treatment): > 100 µM; IC50 ([5]; Homo sapiens, MCF7, MCF-7, 48 h treatment): > 100 µM; GI50 ([6]; Homo sapiens, T47D, 48 h): 48 µM; IC50 ([6]; Homo sapiens, T47D): > 100 µM; GI50 ([7]; Homo sapiens): > 100 µM; IC50 ([7]; Homo sapiens): > 100 µM; GI50 ([8]; Homo sapiens): 72 µM; IC50 ([8]; Homo sapiens): > 100 µM; GI50 [9, 12]: 45 µM; IC50 [9, 12]: > 100 µM; melting point: 237 to 239 °C
COc1cc(Cc2nnc3sc(CC=Cc4ccccc4)nn23)c(S(=O)(=O)N(C)C)cc1OC [TS53, 3-[2-(N,N-dimethylsulfamoyl)-4,5-dimethoxybenzyl]-6-cinnamyl-1,2,4-triazolo[3,4-b]-1,3,4-thiazole]	28	12	16	56	45 µM	8	37 µM	31	21	24	12	42	5	25	8	32	12	> 100	15	> 100	IC50 [6]: > 100 µM; GI50 [7]: 12 µM; IC50 [7]: 85 µM; GI50 [8]: 4 µM; IC50 [8]: 36 µM; GI50 ([9]; A-549, 48 h treatment): 9 µM; IC50 ([9]; A-549, 48 h treatment): 58 µM; LD10 (C57BI/6 mice): >500 mg/kg; LD50 (C57BI/6 mice): 375 mg/kg
COc1cc(Cc2nnc3sc(-c4ccccn4)nn23)c(S(=O)(=O)N(C)C)cc1OC [TS66]	>100	>100	>100	>100	>100 µM	> 100	>100 µM	>100	>100	>100	> 100	> 100	24	> 100	20	> 100	> 100	> 100	> 100	> 100	IC50 [6]: > 100 µM; GI50 [7]: > 100 µM; IC50 [7]: > 100 µM; GI50 [8]: 85 µM; IC50 [8]: > 100 µM; GI50 ([9]; A-549, 48 h treatment): > 100 µM; IC50 ([9]; A-549, 48 h treatment): > 100 µM; LD10 (C57BI/6 mice): >500 mg/kg; LD50 (C57BI/6 mice): >500 mg/kg
